The record followed here is patent US9133231B2, “Compounds for treating bacterial infections” (Yissum Research Development Company of the Hebrew …, priority 2010, dated 2015).

Assay type in all cases: cell-based
The test system of data set [1] is B. subtilis. In words: Mature spore formation after induced sporulation (heat shock, CFU count). The protocol: Cells were grown to an OD600 of 0.5. They were then washed with synthetic medium on a membrane filter and suspended in synthetic medium lacking amino acids in order to induce them to sporulate in the presence and the absence of inhibitors. Sporulation was monitored by fluorescence microscopy.
In order to further evaluate the effect of compounds A2 on sporulation, wild type bacteria were induced to sporulate in the presence of different concentrations (from 200 to 1.8 mM) of compound A2 and the process was monitored using fluorescence microscopy. With the aim of learning about the fate of the spores formed in the previously described cultures, an aliquot from the cell culture was taken and subjected to heat treatment (heat shock). The treatment included exposure of the cultures to 80° C. for 15 minutes and further plating on LB plates. After incubating the plates for 15 hours at 37° C., the colony forming units (CFUs) were quantified and the percent of mature spore formation was calculated (FIG. 2B-C).
The influence of the timing of addition of A2 was evaluated. Bacteria were induced to sporulate and A2 (1.8 mM) was added to the cultures every two hours (at T=0, T=2, T=4 and T=6). After growing overnight the cultures were heated and plated on LB plates.

For data set [2], the system named is B. subtilis. In words: Growth and survival of B. subtilis growing in LB medium (CFU). Particulars: 1.8 mM added at OD600 of 0.2, LB medium, 37° C.; FIG. 3. On the procedure:
The effect of A2 on growth and survival of B. subtilis growing in LB medium was then evaluated. Bacteria were grown overnight at 23° C. and diluted to an OD600 of 0.05. Subsequently, bacteria were further grown at 37° C. and A2 (1.8 mM) was added at an OD600 of 0.2. Bacterial growth was then continuously monitored by measuring the turbidity of the medium at 600 nm (OD600). Samples were taken and plated on LB plates. The plates were incubated at 37° C. for 15 hours. Colony forming units (CFU) were counted and compared to the untreated culture.

In data set [3] the test system is B. subtilis. In words: Bacterial survival in CH medium (CFU after 24 hours of growth). On the procedure: Bacteria were grown in CH medium and samples were taken and plated on LB plates after 24 hours of growth. The plates were incubated at 37° C. for 15 hours. Colony forming units (CFU) were counted and compared to the untreated culture.
(§1) Cytotoxicity of compound A2 on eukaryotic (A431) and prokaryotic cells (B. Subtilis) was determined by using the methylthiazolyldiphenyl-tetrazolium bromide (MTT) assay. Bacteria were grown in CH medium and samples were taken and plated on LB plates after 24 hours of growth. The plates were incubated at 37° C. for 15 hours. Colony forming units (CFU) were counted and compared to the untreated culture. Viable bacterial cells are counted as CFU/mL: colony forming units per milliliter. Each CFU is equivalent to viable cell.

The subject of data set [4] is A431 Epidermoid carcinoma cells. In words: MTT cytotoxicity assay on A431 cells. Particulars: 72 hours incubation, up to 10 different concentrations, FIG. 8. On the procedure: as §1
In a standard procedure, the cell line (A431: epidermoid carcinoma) was incubated for 24 hours in 37° C. and 5% CO2. Subsequently, compound A2 was added to the wells in up to 10 different concentrations. Subsequent to incubation of cells with A2 for an additional 72 hours, the MTT reagent was added.
A general note: Formazan colour is commonly taken as a measure of viable cells.

As usually defined, the inhibition is the percentage by which the read-out fell short of the control. In the case of `CC(C)C(=O)Nc1nc2c(ncn2[C@H]2CC(OC(=O)NCC(=O)NCC(=O)O)[C@@H](COC(=O)NCC(=O)NCC(=O)O)O2)c(=O)[nH]1` (stereo partly shown) [Compound A2], the “reduction of the formation of mature spores” value in data set [1] (0.22 mM (lowest tested concentration), heat shock 80° C. 15 minutes, CFU, FIG. 2B-C) is recorded as “about 70%”. Besides, the inhibition at 1800 µM in data set [1] (Bacillus subtilis, 1.8 mM added at T=0, T=2, T=4 or T=6 after inducing sporulation, in every case, FIG. 7, read-out: inhibition of the formation of mature spores) was over 80%. In data set [1] (rest of the tested concentrations (above 0.22 mM, up to 1.8 mM), FIG. 2B-C), this molecule displayed an inhibition of sporulation of 100%. In addition, the “number of CFUs compared to the untreated culture” value in data set [2] is “substantially reduced the number of CFUs”. In addition, the “cytotoxicity to B. Subtilis cells (prokaryotic)” value in data set [3] (CFU/mL after 24 hours of growth in CH medium, FIG. 8) is on record as “completely cytotoxic”. For the same molecule, the “CFU/mL of the treated cultures” value in data set [3] (CH medium, after 24 hours of growth, increasing concentrations, FIG. 6) was “decreases in a dose dependent fashion”. Further, the “cytotoxicity to A431 cells (eukaryotic)” value in data set [4] is on record as “not to A431 cells”.
